# PubChem BioAssay AID1845210 (Molecular Pharmacology Branch, DTP, NCI, 2023)
# Test system: NCI-H226 complex tumor spheroids, viability
# Experiment: Anticancer human tumor NCI-H226 cell line growth inhibition;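 further: spheroids exposed to compound for 7 days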;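 on viability, T/C: 100% = DMSO vehicle control viability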
# Settings: for IC50: curve of first compound; for viability, T/C: stronger effect = lower value
# Summary of the method: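 Complex spheroids of malignant cells with endothelial cells and mesenchymal stem cells; agents alone or combined, from near clinical Cmax (or 10 microM if unknown) down in half-log steps, 0.25% DMSO final.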
# [1] = second compound 30 pM, first compound 0.0316 µM
# [2] = second compound 30 pM, first compound 0.1 µM
# [3] = second compound 30 pM, first compound 0.316 µM
# [4] = second compound 30 pM, first compound 1 µM
# [5] = second compound 30 pM, first compound 3.16 µM
# [6] = second compound 30 pM, first compound 10 µM
# [7] = second compound 94.9 pM, first compound 0.0316 µM
# [8] = second compound 94.9 pM, first compound 0.1 µM
# [9] = second compound 94.9 pM, first compound 0.316 µM
# [10] = second compound 94.9 pM, first compound 1 µM
# [11] = second compound 94.9 pM, first compound 3.16 µM
# [12] = second compound 94.9 pM, first compound 10 µM
# [13] = second compound 0.0003 µM, first compound 0.0316 µM
# [14] = second compound 0.0003 µM, first compound 0.1 µM
# [15] = second compound 0.0003 µM, first compound 0.316 µM
# [16] = second compound 0.0003 µM, first compound 1 µM
# [17] = second compound 0.0003 µM, first compound 3.16 µM
# [18] = second compound 0.0003 µM, first compound 10 µM
# [19] = second compound 0.000949 µM, first compound 0.0316 µM
# [20] = second compound 0.000949 µM, first compound 0.1 µM
# [21] = second compound 0.000949 µM, first compound 0.316 µM
# [22] = second compound 0.000949 µM, first compound 1 µM
# [23] = second compound 0.000949 µM, first compound 3.16 µM
# [24] = second compound 0.000949 µM, first compound 10 µM
# [25] = second compound 0.003 µM, first compound 0.0316 µM
# [26] = second compound 0.003 µM, first compound 0.1 µM
# [27] = second compound 0.003 µM, first compound 0.316 µM
# [28] = second compound 0.003 µM, first compound 1 µM
# [29] = second compound 0.003 µM, first compound 3.16 µM
# [30] = second compound 0.003 µM, first compound 10 µM
# [31] = second compound 1 µM, first compound 0.00949 µM
# [32] = second compound 1 µM, first compound 0.03 µM
# [33] = second compound 1 µM, first compound 0.0949 µM
# [34] = second compound 1 µM, first compound 0.3 µM
# [35] = second compound 1 µM, first compound 0.949 µM
# [36] = second compound 1 µM, first compound 3 µM
# [37] = second compound 3.16 µM, first compound 0.00949 µM
# [38] = second compound 3.16 µM, first compound 0.03 µM
# [39] = second compound 3.16 µM, first compound 0.0949 µM
# [40] = second compound 3.16 µM, first compound 0.3 µM
# [41] = second compound 3.16 µM, first compound 0.949 µM
# [42] = second compound 3.16 µM, first compound 3 µM
# [43] = second compound 10 µM, first compound 0.00949 µM
# [44] = second compound 10 µM, first compound 0.03 µM
# [45] = second compound 10 µM, first compound 0.0949 µM
# [46] = second compound 10 µM, first compound 0.3 µM
# [47] = second compound 10 µM, first compound 0.949 µM
# [48] = second compound 10 µM, first compound 3 µM
# [49] = second compound 31.6 µM, first compound 0.00949 µM
# [50] = second compound 31.6 µM, first compound 0.03 µM
# [51] = second compound 31.6 µM, first compound 0.0949 µM
# [52] = second compound 31.6 µM, first compound 0.3 µM
# [53] = second compound 31.6 µM, first compound 0.949 µM
# [54] = second compound 31.6 µM, first compound 3 µM
# [55] = second compound 100 µM, first compound 0.00949 µM
# [56] = second compound 100 µM, first compound 0.03 µM
# [57] = second compound 100 µM, first compound 0.0949 µM
# [58] = second compound 100 µM, first compound 0.3 µM
# [59] = second compound 100 µM, first compound 0.949 µM
# [60] = second compound 100 µM, first compound 3 µM
structure (smiles),measurement,setting,value
CC(C)n1c(=O)n(C)c2cnc3cc(F)c(-c4ccc(OCCCN5CCCCC5)nc4)cc3c21 + COc1cc2c(cc1O)CCNC21CSC2c3c(OC(C)=O)c(C)c4c(c3C(COC1=O)N1C(O)C3Cc5cc(C)c(OC)c(O)c5C(C21)N3C)OCO4,IC50,second compound 30 pM,9.84 µM
same,IC50,second compound 94.9 pM,6.75 µM
same,IC50,second compound 0.0003 µM,6.99 µM
same,IC50,second compound 0.000949 µM,6.76 µM
same,IC50,second compound 0.003 µM,< 0.0316 µM
same,"viability, T/C",[1],110%
same,"viability, T/C",[2],102%
same,"viability, T/C",[3],121%
same,"viability, T/C",[4],110%
same,"viability, T/C",[5],91%
same,"viability, T/C",[6],49.4%
same,"viability, T/C",[7],108%
same,"viability, T/C",[8],102%
same,"viability, T/C",[9],112%
same,"viability, T/C",[10],103%
same,"viability, T/C",[11],90.4%
same,"viability, T/C",[12],29.2%
same,"viability, T/C",[13],107%
same,"viability, T/C",[14],125%
same,"viability, T/C",[15],122%
same,"viability, T/C",[16],102%
same,"viability, T/C",[17],102%
same,"viability, T/C",[18],27.4%
same,"viability, T/C",[19],98.2%
same,"viability, T/C",[20],103%
same,"viability, T/C",[21],104%
same,"viability, T/C",[22],120%
same,"viability, T/C",[23],97.4%
same,"viability, T/C",[24],25.4%
same,"viability, T/C",[25],1.2%
same,"viability, T/C",[26],2.1%
same,"viability, T/C",[27],1.2%
same,"viability, T/C",[28],3.57%
same,"viability, T/C",[29],1.96%
same,"viability, T/C",[30],1%
COc1ccc([C@@H](O)c2cc(-c3ncnc4cc(N5CCOCC5)ccc34)c(F)cc2Cl)nn1 + COc1cc2c(cc1O)CCNC21CSC2c3c(OC(C)=O)c(C)c4c(c3C(COC1=O)N1C(O)C3Cc5cc(C)c(OC)c(O)c5C(C21)N3C)OCO4,IC50,second compound 30 pM,6.37 µM
same,IC50,second compound 94.9 pM,4.02 µM
same,IC50,second compound 0.0003 µM,4.26 µM
same,IC50,second compound 0.000949 µM,0.756 µM
same,IC50,second compound 0.003 µM,< 0.0316 µM
same,"viability, T/C",[1],115%
same,"viability, T/C",[2],108%
same,"viability, T/C",[3],81.2%
same,"viability, T/C",[4],80.5%
same,"viability, T/C",[5],58%
same,"viability, T/C",[6],43.6%
same,"viability, T/C",[7],99.8%
same,"viability, T/C",[8],105%
same,"viability, T/C",[9],106%
same,"viability, T/C",[10],76.5%
same,"viability, T/C",[11],54.6%
same,"viability, T/C",[12],43.5%
same,"viability, T/C",[13],126%
same,"viability, T/C",[14],130%
same,"viability, T/C",[15],122%
same,"viability, T/C",[16],95.4%
same,"viability, T/C",[17],54.7%
same,"viability, T/C",[18],37.5%
same,"viability, T/C",[19],107%
same,"viability, T/C",[20],112%
same,"viability, T/C",[21],93.6%
same,"viability, T/C",[22],36.4%
same,"viability, T/C",[23],0.51%
same,"viability, T/C",[24],0.24%
same,"viability, T/C",[25],1.01%
same,"viability, T/C",[26],0.79%
same,"viability, T/C",[27],0.98%
same,"viability, T/C",[28],0.69%
same,"viability, T/C",[29],0.74%
same,"viability, T/C",[30],1.08%
CNCc1ccc(-c2cc(-c3nc(-c4ccc(S(=O)(=O)C(C)C)cc4)cnc3N)on2)cc1 + Cn1nnc2c(C(N)=O)ncn2c1=O,IC50,second compound 1 µM,0.756 µM
same,IC50,second compound 3.16 µM,0.717 µM
same,IC50,second compound 10 µM,0.755 µM
same,IC50,second compound 31.6 µM,1.03 µM
same,IC50,second compound 100 µM,1.37 µM
same,"viability, T/C",[31],110%
same,"viability, T/C",[32],125%
same,"viability, T/C",[33],138%
same,"viability, T/C",[34],140%
same,"viability, T/C",[35],30.7%
same,"viability, T/C",[36],0.26%
same,"viability, T/C",[37],96.1%
same,"viability, T/C",[38],119%
same,"viability, T/C",[39],127%
same,"viability, T/C",[40],134%
same,"viability, T/C",[41],27.6%
same,"viability, T/C",[42],0.51%
same,"viability, T/C",[43],117%
same,"viability, T/C",[44],117%
same,"viability, T/C",[45],131%
same,"viability, T/C",[46],128%
same,"viability, T/C",[47],31.8%
same,"viability, T/C",[48],0.23%
same,"viability, T/C",[49],110%
same,"viability, T/C",[50],117%
same,"viability, T/C",[51],144%
same,"viability, T/C",[52],123%
same,"viability, T/C",[53],53.7%
same,"viability, T/C",[54],1.75%
same,"viability, T/C",[55],119%
same,"viability, T/C",[56],125%
same,"viability, T/C",[57],123%
same,"viability, T/C",[58],114%
same,"viability, T/C",[59],73.3%
same,"viability, T/C",[60],0.35%
Cn1ncnc1[C@H]1c2n[nH]c(=O)c3cc(F)cc(c23)N[C@@H]1c1ccc(F)cc1 + Cn1nnc2c(C(N)=O)ncn2c1=O,IC50,second compound 1 µM,> 3 µM
same,IC50,second compound 3.16 µM,> 3 µM
same,IC50,second compound 10 µM,> 3 µM
same,IC50,second compound 31.6 µM,> 3 µM
same,IC50,second compound 100 µM,> 3 µM
same,"viability, T/C",[31],101%
same,"viability, T/C",[32],103%
same,"viability, T/C",[33],99.4%
same,"viability, T/C",[34],91.2%
same,"viability, T/C",[35],85.8%
same,"viability, T/C",[36],97.8%
same,"viability, T/C",[37],105%
same,"viability, T/C",[38],55.1%
same,"viability, T/C",[39],94.8%
same,"viability, T/C",[40],85.6%
same,"viability, T/C",[41],93.1%
same,"viability, T/C",[42],105%
same,"viability, T/C",[43],108%
same,"viability, T/C",[44],89.9%
same,"viability, T/C",[45],86.8%
same,"viability, T/C",[46],88.6%
same,"viability, T/C",[47],89.5%
same,"viability, T/C",[48],97.5%
same,"viability, T/C",[49],101%
same,"viability, T/C",[50],95.2%
same,"viability, T/C",[51],96.4%
same,"viability, T/C",[52],91.8%
same,"viability, T/C",[53],82.3%
same,"viability, T/C",[54],90.7%
same,"viability, T/C",[55],106%
same,"viability, T/C",[56],108%
same,"viability, T/C",[57],95.8%
same,"viability, T/C",[58],87.1%
same,"viability, T/C",[59],100%
same,"viability, T/C",[60],93.5%
O=C(c1cc(Cc2n[nH]c(=O)c3ccccc23)ccc1F)N1CCN(C(=O)C2CC2)CC1 + Cn1nnc2c(C(N)=O)ncn2c1=O,IC50,second compound 1 µM,> 30 µM
same,IC50,second compound 3.16 µM,> 30 µM
same,IC50,second compound 10 µM,> 30 µM
same,IC50,second compound 31.6 µM,> 30 µM
same,IC50,second compound 100 µM,> 30 µM
same,"viability, T/C",[33],99.9%
same,"viability, T/C",[34],99.8%
same,"viability, T/C",[35],107%
same,"viability, T/C",[36],104%
same,"viability, T/C","second compound 1 µM, first compound 9.49 µM",99.2%
same,"viability, T/C","second compound 1 µM, first compound 30 µM",86.4%
same,"viability, T/C",[39],105%
same,"viability, T/C",[40],96.7%
same,"viability, T/C",[41],105%
same,"viability, T/C",[42],95.4%
same,"viability, T/C","second compound 3.16 µM, first compound 9.49 µM",81.9%
same,"viability, T/C","second compound 3.16 µM, first compound 30 µM",80.3%
same,"viability, T/C",[45],112%
same,"viability, T/C",[46],104%
same,"viability, T/C",[47],95.1%
same,"viability, T/C",[48],101%
same,"viability, T/C","second compound 10 µM, first compound 9.49 µM",84.6%
same,"viability, T/C","second compound 10 µM, first compound 30 µM",77.3%
same,"viability, T/C",[51],98.3%
same,"viability, T/C",[52],101%
same,"viability, T/C",[53],110%
same,"viability, T/C",[54],95.1%
same,"viability, T/C","second compound 31.6 µM, first compound 9.49 µM",84.6%
same,"viability, T/C","second compound 31.6 µM, first compound 30 µM",82%
same,"viability, T/C",[57],114%
same,"viability, T/C",[58],113%
same,"viability, T/C",[59],125%
same,"viability, T/C",[60],99.3%
same,"viability, T/C","second compound 100 µM, first compound 9.49 µM",97.8%
same,"viability, T/C","second compound 100 µM, first compound 30 µM",80.5%
